One may read the IC50 as the midpoint of a concentration-inhibition curve.

The results in this text go back to ChEMBL document CHEMBL5108035, “Acriflavine, an Acridine Derivative for Biomedical Application: Current State of the Art” (J Med Chem, 2022).

Data set [1] is described as follows: Anticancer activity against patient-derived human Colorectal tumor cells assessed as tumor growth inhibition incubated for 72 hrs by FMCA assay. Type of data set: functional, cell-based. The note with it: Colorectal cancer cell.
The test system of another data set is Ovarian cancer cell line. In words: Anticancer activity against patient-derived human Ovarian tumor cells assessed as tumor growth inhibition incubated for 72 hrs by FMCA assay. The data set is classed as functional, cell-based.
In another data set the test system is Mahlavu. The data set can be described thus: Cytotoxicity against human Mahlavu cells assessed as inhibition of cell viability incubated upto 72 hrs by MTT assay. Type of data set: functional, cell-based. (In general: Tetrazolium assays rely on reduction of a dye to a coloured formazan, in cell work by metabolically active cells.)
A short description of data set [2]: Cytotoxicity against patient-derived human mononuclear cells assessed as cell growth inhibition incubated for 72 hrs by FMCA assay. The data set is classed as toxicity, cell-based, Mononuclear cell line.
Data set [3] can be described thus: Anticancer activity against patient-derived human CLL tumor cells assessed as tumor growth inhibition incubated for 72 hrs by FMCA assay. Type of data set: functional, cell-based. To be noted: CLL cell.

As to `CCc1c2c(nc3ccc(OC(=O)N4CCC(N5CCCCC5)CC4)cc13)-c1cc3c(c(=O)n1C2)COC(=O)[C@]3(O)CC` [IRINOTECAN], the IC50 was 89.6 µM in data set [1] and 75.3 µM in the data set on Ovarian cancer cell line.

Regarding `CNC(=O)c1cc(Oc2ccc(NC(=O)Nc3ccc(Cl)c(C(F)(F)F)c3)cc2)ccn1` [SORAFENIB], the IC50 with Mahlavu is 13.4 µM.

Regarding `O=c1[nH]cc(F)c(=O)[nH]1` [FLUOROURACIL], the IC50 worked out at 755 µM in data set [1], 563 µM in the data set with Ovarian cancer cell line and 658 µM in data set [3]. For the same molecule, the IC50 at 72 h in data set [2] was determined as 430 µM.
